From PubChem BioAssay (NCI) come the findings set out here.

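Test compounds were applied to cells in 96-well plates for 48 hours at 5 doses. At the GI50, growth is halved. At the TGI there is no net growth.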

Holding throughout (test): growth of human tumour cells (NCI), 48 h
In test [1] the test system is A498 renal.
In test [2] the test system is HCC-2998 colon.
The subject of test [3] is HS 578T breast.
Test [4] deals with K-562 leukemia.
Test [5] deals with OVCAR-3 ovarian.
For test [6], the system named is RPMI-8226 leukemia.
Test [7] concerns SNB-19 CNS.
Test [8] concerns SW-620 colon.
Test [9] has as its system UO-31 renal.
The subject of test [10] is HL-60(TB) leukemia.

With `O=C(O)c1cc(Cc2ccc(O)c(C(=O)O)c2)ccc1O` (tested in a mixture with another compound), the GI50 in test [1] is 5.68 µM; in [2], 1.9 µM; in test [3], 3.78 µM; in [4], 2.38 µM; in test [5], 9.75 µM; in test [6], 2.62 µM. In addition, the GI50 was 12.8 µM in [7], 3.55 µM in test [8] and 3.99 µM in test [9]. Moreover, the TGI in test [1] was 21.9 µM; in test [2], 3.73 µM; in [3] it was 40.4 µM; in [4], over 100 µM; in [5], 22.3 µM; in [6] it was over 100 µM. The values for the TGI in [7], in [8] and in [9] were 28.2 µM, 23.5 µM and 19.9 µM, respectively.

With `C=CCC(N[C@H](CO)c1ccccc1)c1cn(S(=O)(=O)c2ccc(C)cc2)c2ccccc12` (stereo partly drawn), the GI50 was 15.8 µM in [2]; 24.3 µM in test [3]; 2.72 µM in [4]; over 100 µM in test [5]; 6.85 µM in test [6]; 60.8 µM in test [7]. The GI50 is 31.8 µM in test [8] and 94.8 µM in [9]. Moreover, the TGI in test [2] is 33.4 µM; in [3] it was 60.5 µM; in [5], over 100 µM; in [6], 46.2 µM; in test [7], over 100 µM; in [8], 85.9 µM. This molecule showed a TGI in [9] of over 100 µM.

On to `CCN(CC)CCOc1ccc2c(c1)C(=O)c1cc(OCCN(CC)CC)ccc1-2`, for which the GI50 in test [1] was 16.5 µM; in test [2], 10 µM; in test [10] it was 3.04 µM; in test [3], 13.7 µM; in test [4], 3.1 µM; in [5] it was 18.3 µM. Besides, the results for the GI50 in test [7], in [8] and in test [9] were 26.3 µM, 4.04 µM and 3.52 µM, respectively. Besides, the TGI is 37.5 µM in test [1]; 22.6 µM in test [2]; 17.5 µM in test [10]; 38 µM in [3]; 11.2 µM in test [4]; 52.6 µM in [5]. For the same molecule, the TGI in [7] came out at 61.7 µM; in [8], 20.6 µM; in test [9], 26.3 µM.

`CO[C@@]12C[C@H]3[C@@H]([C@@H](O)[C@@H](OC(=O)/C=C/c4ccccc4)[C@@]4(O)C(C)(C)CCC[C@]34C)[C@@H](C)C1=CC(=O)O2`: the GI50 in [1] was 11.3 µM; in [10] it was 11.1 µM; in test [3], 7.8 µM; in test [4] it was 12.5 µM; in test [5], 2.01 µM; in [6] it was 3.58 µM. For the same molecule, the GI50 in [7] is 16.1 µM; in test [8], 12.2 µM; in [9] it was 16.6 µM. The TGI is 26.3 µM in test [1]; over 100 µM in test [10]; 29.3 µM in test [3]; over 100 µM in test [4]; 11.6 µM in test [5]; 20.8 µM in test [6]. The TGI in test [7] was over 100 µM; in test [8], 31.5 µM; in [9], over 100 µM.

With `COC(=O)OCc1ccc2c(c1)C(=O)c1c-2n(CCCBr)c(=O)c2cc([N+](=O)[O-])ccc12`, the GI50 is 57.6 µM in test [1]; 61.3 µM in test [2]; 70.2 µM in [10]; 31 µM in test [3]; over 100 µM in [5]; 79 µM in test [7]. For the same molecule, the GI50 in test [8] and in test [9] was over 100 µM throughout. Further, the TGI in test [1], in test [2], in test [10], in test [3], in [5] and in [7] was over 100 µM in each case. Besides, the TGI in [8] and in test [9] was over 100 µM throughout.

Consider `Cc1cc(C)c2c(SCc3ccc(Cl)cc3Cl)nc(N)nc2n1`, for which the TGI in [1] is over 100 µM; in test [10], over 100 µM; in test [3] it was over 100 µM; in [4] it was 97.1 µM; in test [5] it was 76.2 µM; in test [6] it was over 100 µM. For the same molecule, the TGI in test [7] is over 100 µM; in [8] it was over 100 µM; in test [9], 70.7 µM.

In the case of `CC(=O)/C=C/C1=C(c2cccs2)c2ccccc2CC1`, the GI50 was 23.7 µM in test [1]; 25.8 µM in test [2]; 20.7 µM in test [10]; 29.5 µM in test [3]; 32.5 µM in test [4]; 29.7 µM in [5]. For the same molecule, the figures for the GI50 in test [6], in test [8] and in test [9] were 19.9 µM, 33.9 µM and 25.7 µM, respectively. Further, the TGI in [1] is 47.9 µM; in test [2] it was 59.8 µM; in [10], over 100 µM; in test [3], 98.6 µM; in test [4] it was over 100 µM; in test [5] it was 63.6 µM. Moreover, the TGI in test [6] is 47.6 µM; in test [8], over 100 µM; in [9], 86.4 µM.

As to `CCCCCCC#CC#Cc1cccc(=O)o1`, the GI50 in [1] was 14.9 µM; in test [2] it was 2.52 µM; in test [3] it was 1.99 µM; in [4], 7.33 µM; in [5], 2.04 µM; in [6] it was 1.72 µM. The values for the GI50 in test [7], in test [8] and in test [9] were 25.6 µM, 0.974 µM and 3.26 µM, respectively. Moreover, the TGI was 29.1 µM in test [1]; 6.12 µM in test [2]; 6.49 µM in test [3]; over 100 µM in test [4]; 4.8 µM in test [5]; 27.3 µM in test [6]. For the same molecule, the TGI in test [7] is 45.9 µM; in test [8], 2.78 µM; in test [9], over 27.4 µM.

For `OCC#Cc1ccccc1C#Cc1ccc(C#Cc2ccccc2C#CCO)s1`, the GI50 in test [2] is 14.7 µM; in [10] it was 43.4 µM; in test [3], 22.3 µM; in test [4], 64 µM; in [5], 12.8 µM; in [6], 22.2 µM. In addition, the GI50 is 22.1 µM in test [7], 18.4 µM in test [8] and 18.1 µM in [9]. Further, the TGI in test [2] is 28.8 µM; in test [10], over 100 µM; in test [3], 58.1 µM; in test [4], over 100 µM; in test [5], 25.4 µM; in test [6] it was 49.1 µM. Further, the results for the TGI in test [7], in test [8] and in [9] were 42.7 µM, 37.3 µM and 36 µM, respectively.
